Assay results published in publication PMC10178848, “Modulating fast skeletal muscle contraction protects skeletal muscle in animal models of Duchenne muscular dystrophy” (The Journal of Clinical Investigation, 2023).

Tests used:
[1] = test system: psoas S1 (fast skeletal muscle myosin); assay: Stopped-flow analysis of Pi release from myosin; type: biochemical, rabbit; design: dose or concentration left out as unconfirmed; conditions: preincubation with myosin 30 minutes prior to actin
Experimental: The rate of Pi release from myosin with actin utilized a fluorescent phosphate binding protein, as described previously ([63]). Experiments were performed in 10 mM MOPS, pH 7.0; 5 mM KCL; 1 mM EGTA; 1 mM DTT; 0.5 mM MgCl2. ATP and ADP were removed by incubation with apyrase ([64]). Prior to mixing with 1 mM ATP in a stopped flow device, compound was incubated with 6 μM psoas S1 at 25°C for 30 minutes.

[2] = target: T1, RSK2(Kin.Dom.1-N-terminal) (Homo sapiens, UniProt P51812); assay: KINOMEscan scanEDGE; type: binding; conditions: 20 uM
T1 construct: RSK2(Kin.Dom.1-N-terminal); purchased Eurofins DiscoverX (KINOMEscan; SAFETYscan E/IC50 ELECT)

AURKA = target: T2, AURKA (Homo sapiens, UniProt O14965); assay: KINOMEscan scanEDGE; type: binding; conditions: 20 uM
T2 construct: purchased Eurofins DiscoverX (KINOMEscan; SAFETYscan E/IC50 ELECT)

JNK3 = target: T3, JNK3 (Homo sapiens, UniProt P53779); assay: KINOMEscan scanEDGE; type: binding; conditions: 20 uM
T3 construct: purchased Eurofins DiscoverX (KINOMEscan; SAFETYscan E/IC50 ELECT)

MAP3K4 = target: T4, MAP3K4 (Homo sapiens, UniProt Q9Y6R4); assay: KINOMEscan scanEDGE; type: binding; conditions: 20 uM
T4 construct: purchased Eurofins DiscoverX (KINOMEscan; SAFETYscan E/IC50 ELECT)
T4 sequence (Q9Y6R4 whole entry): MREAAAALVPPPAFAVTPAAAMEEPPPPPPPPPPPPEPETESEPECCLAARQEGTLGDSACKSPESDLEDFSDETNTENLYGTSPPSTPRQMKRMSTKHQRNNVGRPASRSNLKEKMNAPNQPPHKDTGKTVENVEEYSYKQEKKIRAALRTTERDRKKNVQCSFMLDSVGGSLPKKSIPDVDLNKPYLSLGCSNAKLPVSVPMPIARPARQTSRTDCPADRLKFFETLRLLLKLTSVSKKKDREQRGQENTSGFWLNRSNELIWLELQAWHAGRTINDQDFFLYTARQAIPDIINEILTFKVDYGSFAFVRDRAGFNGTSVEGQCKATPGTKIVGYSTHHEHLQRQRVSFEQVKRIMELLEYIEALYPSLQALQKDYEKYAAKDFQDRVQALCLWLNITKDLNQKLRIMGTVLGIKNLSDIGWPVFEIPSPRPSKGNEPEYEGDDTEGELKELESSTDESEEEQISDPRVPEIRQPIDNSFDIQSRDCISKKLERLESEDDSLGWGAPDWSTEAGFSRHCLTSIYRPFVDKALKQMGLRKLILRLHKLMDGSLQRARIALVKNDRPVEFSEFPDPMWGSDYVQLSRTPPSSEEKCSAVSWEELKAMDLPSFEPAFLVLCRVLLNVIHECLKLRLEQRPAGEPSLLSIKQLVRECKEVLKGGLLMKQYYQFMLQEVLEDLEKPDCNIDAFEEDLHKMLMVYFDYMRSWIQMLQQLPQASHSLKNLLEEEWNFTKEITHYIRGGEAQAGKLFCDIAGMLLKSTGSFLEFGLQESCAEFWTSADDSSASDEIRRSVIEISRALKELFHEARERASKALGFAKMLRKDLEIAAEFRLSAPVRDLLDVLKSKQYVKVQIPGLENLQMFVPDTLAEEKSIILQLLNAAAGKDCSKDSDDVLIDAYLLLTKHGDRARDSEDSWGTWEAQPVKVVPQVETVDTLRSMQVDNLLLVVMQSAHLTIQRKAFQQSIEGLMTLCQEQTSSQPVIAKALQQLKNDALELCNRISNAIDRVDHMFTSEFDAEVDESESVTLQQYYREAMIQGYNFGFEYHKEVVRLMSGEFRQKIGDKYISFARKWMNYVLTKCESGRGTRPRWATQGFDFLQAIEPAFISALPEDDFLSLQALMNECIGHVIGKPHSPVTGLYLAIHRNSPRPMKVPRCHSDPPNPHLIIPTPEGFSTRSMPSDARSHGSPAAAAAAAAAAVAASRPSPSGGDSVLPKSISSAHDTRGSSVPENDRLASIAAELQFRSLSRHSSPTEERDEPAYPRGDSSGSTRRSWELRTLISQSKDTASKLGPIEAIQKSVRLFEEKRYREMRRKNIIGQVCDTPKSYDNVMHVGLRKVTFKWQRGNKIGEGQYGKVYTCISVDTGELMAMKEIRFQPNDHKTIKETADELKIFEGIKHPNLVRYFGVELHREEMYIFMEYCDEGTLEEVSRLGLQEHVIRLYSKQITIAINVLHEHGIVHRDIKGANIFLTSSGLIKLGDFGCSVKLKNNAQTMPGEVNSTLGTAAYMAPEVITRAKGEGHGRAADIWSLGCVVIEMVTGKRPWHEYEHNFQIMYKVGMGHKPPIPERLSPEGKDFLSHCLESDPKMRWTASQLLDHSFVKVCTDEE

CSF1R = target: T5, CSF1R (Homo sapiens, UniProt P07333); assay: KINOMEscan scanEDGE; type: binding; conditions: 20 uM
T5 construct: purchased Eurofins DiscoverX (KINOMEscan; SAFETYscan E/IC50 ELECT)
T5 sequence (P07333 20-972): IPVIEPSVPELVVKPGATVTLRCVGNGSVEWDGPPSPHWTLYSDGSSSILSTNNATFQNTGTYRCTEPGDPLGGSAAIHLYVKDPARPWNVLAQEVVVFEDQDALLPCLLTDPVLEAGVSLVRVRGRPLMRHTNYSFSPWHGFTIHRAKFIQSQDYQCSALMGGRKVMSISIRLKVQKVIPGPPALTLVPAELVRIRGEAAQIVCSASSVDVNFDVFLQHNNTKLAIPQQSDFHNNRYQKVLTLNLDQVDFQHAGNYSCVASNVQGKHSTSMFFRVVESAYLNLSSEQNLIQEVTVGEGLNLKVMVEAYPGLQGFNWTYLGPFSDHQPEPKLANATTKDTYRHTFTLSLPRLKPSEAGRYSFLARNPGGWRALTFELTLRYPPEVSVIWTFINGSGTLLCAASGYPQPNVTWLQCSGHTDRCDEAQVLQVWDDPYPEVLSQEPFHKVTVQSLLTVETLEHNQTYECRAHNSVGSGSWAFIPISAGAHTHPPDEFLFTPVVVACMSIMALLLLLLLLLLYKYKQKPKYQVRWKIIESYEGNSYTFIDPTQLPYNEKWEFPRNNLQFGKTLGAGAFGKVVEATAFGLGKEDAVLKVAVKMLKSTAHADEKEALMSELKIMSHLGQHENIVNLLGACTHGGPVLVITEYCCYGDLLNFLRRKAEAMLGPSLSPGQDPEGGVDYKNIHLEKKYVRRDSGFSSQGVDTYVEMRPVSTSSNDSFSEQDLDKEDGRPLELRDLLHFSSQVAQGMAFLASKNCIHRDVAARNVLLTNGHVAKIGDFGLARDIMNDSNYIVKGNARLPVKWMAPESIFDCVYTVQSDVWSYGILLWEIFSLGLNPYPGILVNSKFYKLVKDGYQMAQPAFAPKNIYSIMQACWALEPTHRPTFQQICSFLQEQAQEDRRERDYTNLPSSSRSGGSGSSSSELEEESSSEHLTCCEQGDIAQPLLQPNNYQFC

SERT = target: T6, SERT (Homo sapiens, UniProt P31645); assay: SAFETYscan Transporter; type: cell-based; design: dose or concentration left out as unconfirmed; conditions: read-out: Max Response (%) (Antagonist)
T6 construct: purchased Eurofins DiscoverX (KINOMEscan; SAFETYscan E/IC50 ELECT)
Experimental: (§1) The specificity of EDG-5506 for fast skeletal myosin over other, unrelated proteins was confirmed using two off-target binding and activity screens. […] A second off-target panel (SAFETYscan E/IC50 ELECT, Eurofins DiscoverX) tested in vitro enzyme activity against 78 proteins, including GPCR, ion channel, kinases, nuclear hormone receptors, and transporters. In all assays, the IC50 of EDG-5506 was more than 10 μM (Supplemental Data File 1).

NET = target: T7, NET (Homo sapiens, UniProt P23975); assay: SAFETYscan Transporter; type: cell-based; design: dose or concentration left out as unconfirmed; conditions: read-out: Max Response (%) (Antagonist)
T7 construct: purchased Eurofins DiscoverX (KINOMEscan; SAFETYscan E/IC50 ELECT)
Experimental: as §1

DAT = target: T8, DAT (Homo sapiens, UniProt Q01959); assay: SAFETYscan Transporter; type: cell-based; design: dose or concentration left out as unconfirmed; conditions: read-out: Max Response (%) (Antagonist)
T8 construct: purchased Eurofins DiscoverX (KINOMEscan; SAFETYscan E/IC50 ELECT)
Experimental: as §1

SRPK3 = target: T9, SRPK3 (Homo sapiens, UniProt Q9UPE1); assay: KINOMEscan scanEDGE; type: binding; conditions: 20 uM
T9 construct: purchased Eurofins DiscoverX (KINOMEscan; SAFETYscan E/IC50 ELECT)
T9 sequence (Q9UPE1 whole entry): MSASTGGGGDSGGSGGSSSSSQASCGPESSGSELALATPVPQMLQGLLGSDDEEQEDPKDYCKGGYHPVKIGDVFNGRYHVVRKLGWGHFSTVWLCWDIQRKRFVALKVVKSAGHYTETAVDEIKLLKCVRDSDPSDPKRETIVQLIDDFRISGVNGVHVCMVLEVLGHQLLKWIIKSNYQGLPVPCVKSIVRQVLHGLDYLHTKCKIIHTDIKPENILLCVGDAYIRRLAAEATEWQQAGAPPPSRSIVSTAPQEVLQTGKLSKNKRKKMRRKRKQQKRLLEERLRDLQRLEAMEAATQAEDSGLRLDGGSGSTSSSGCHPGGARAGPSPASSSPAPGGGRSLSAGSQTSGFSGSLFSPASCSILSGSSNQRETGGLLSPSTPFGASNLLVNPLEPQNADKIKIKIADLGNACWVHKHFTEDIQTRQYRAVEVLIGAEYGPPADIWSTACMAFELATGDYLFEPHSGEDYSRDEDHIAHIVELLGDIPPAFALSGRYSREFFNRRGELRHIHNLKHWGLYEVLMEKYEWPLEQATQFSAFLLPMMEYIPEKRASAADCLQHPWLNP

LKB1 = target: T10, LKB1 (Homo sapiens, UniProt Q15831); assay: KINOMEscan scanEDGE; type: binding; conditions: 20 uM
T10 construct: purchased Eurofins DiscoverX (KINOMEscan; SAFETYscan E/IC50 ELECT)

CHEK1 = target: T11, CHEK1 (Homo sapiens, UniProt O14757); assay: KINOMEscan scanEDGE; type: binding; conditions: 20 uM
T11 construct: purchased Eurofins DiscoverX (KINOMEscan; SAFETYscan E/IC50 ELECT)

SRC = target: T12, SRC (Homo sapiens, UniProt P12931); assay: KINOMEscan scanEDGE; type: binding; conditions: 20 uM
T12 construct: purchased Eurofins DiscoverX (KINOMEscan; SAFETYscan E/IC50 ELECT)

[3] = target: T13, JAK2(JH1domain-catalytic) (Homo sapiens, UniProt O60674); assay: KINOMEscan scanEDGE; type: binding; conditions: 20 uM
T13 construct: JAK2(JH1domain-catalytic); purchased Eurofins DiscoverX (KINOMEscan; SAFETYscan E/IC50 ELECT)

FAK = target: T14, FAK (Homo sapiens, UniProt Q05397); assay: KINOMEscan scanEDGE; type: binding; conditions: 20 uM
T14 construct: purchased Eurofins DiscoverX (KINOMEscan; SAFETYscan E/IC50 ELECT)
T14 sequence (Q05397 whole entry): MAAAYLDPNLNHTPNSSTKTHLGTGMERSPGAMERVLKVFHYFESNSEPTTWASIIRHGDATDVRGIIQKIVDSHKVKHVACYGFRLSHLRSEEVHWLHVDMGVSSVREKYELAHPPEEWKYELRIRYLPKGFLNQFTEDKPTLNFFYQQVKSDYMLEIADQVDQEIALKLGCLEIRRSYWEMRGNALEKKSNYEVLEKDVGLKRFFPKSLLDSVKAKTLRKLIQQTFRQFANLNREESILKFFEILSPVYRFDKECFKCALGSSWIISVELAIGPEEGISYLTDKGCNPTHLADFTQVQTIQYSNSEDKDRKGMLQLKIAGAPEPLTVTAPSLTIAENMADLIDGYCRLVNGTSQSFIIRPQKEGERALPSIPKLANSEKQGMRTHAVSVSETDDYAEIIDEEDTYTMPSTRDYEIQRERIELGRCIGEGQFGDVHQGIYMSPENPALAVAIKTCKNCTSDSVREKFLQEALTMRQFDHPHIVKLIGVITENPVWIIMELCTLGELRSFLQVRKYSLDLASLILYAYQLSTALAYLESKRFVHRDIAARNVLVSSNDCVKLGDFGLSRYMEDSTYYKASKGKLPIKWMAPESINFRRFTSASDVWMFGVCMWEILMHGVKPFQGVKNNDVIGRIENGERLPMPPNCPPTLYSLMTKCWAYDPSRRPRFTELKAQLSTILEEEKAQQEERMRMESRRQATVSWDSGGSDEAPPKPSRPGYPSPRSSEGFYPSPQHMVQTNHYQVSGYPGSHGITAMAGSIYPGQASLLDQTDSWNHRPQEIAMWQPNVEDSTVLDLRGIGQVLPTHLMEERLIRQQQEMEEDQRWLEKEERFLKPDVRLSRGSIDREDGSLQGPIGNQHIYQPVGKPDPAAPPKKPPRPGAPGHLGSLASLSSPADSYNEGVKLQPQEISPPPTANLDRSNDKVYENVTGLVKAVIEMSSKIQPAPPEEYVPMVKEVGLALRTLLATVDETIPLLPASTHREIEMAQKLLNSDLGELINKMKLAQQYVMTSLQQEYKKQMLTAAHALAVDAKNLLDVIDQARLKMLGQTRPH

GR = target: T15, GR (Homo sapiens, UniProt P04150); assay: SAFETYscan NHR Protein Interaction; type: cell-based; design: dose or concentration left out as unconfirmed
T15 construct: purchased Eurofins DiscoverX (KINOMEscan; SAFETYscan E/IC50 ELECT)
T15 sequence (P04150 whole entry): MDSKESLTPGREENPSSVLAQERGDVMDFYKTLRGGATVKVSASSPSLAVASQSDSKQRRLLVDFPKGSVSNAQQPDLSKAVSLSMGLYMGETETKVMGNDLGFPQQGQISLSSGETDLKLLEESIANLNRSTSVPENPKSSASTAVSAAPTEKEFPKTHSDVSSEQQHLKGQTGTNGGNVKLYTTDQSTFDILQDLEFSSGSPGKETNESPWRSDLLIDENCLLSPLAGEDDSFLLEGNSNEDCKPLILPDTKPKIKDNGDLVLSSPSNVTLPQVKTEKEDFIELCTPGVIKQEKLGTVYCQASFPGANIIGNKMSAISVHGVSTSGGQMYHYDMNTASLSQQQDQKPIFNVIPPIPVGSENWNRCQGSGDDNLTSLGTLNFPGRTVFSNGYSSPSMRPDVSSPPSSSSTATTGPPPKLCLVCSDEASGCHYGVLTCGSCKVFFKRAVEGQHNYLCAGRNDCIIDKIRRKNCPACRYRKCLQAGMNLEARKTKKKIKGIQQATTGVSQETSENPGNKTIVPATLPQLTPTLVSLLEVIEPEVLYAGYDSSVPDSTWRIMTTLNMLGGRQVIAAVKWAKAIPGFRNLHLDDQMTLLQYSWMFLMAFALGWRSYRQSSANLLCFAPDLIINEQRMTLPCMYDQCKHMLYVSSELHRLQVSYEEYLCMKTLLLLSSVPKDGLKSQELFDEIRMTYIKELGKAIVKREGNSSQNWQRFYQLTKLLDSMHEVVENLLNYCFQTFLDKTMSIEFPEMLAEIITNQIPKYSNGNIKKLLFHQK
Experimental: as §1

Human Soleus myofibrils = assay: Myofibril ATPase, human soleus; type: biochemical
Experimental: Myofibrils were prepared from various animals and tissues: rabbit psoas muscle and porcine cardiac muscle were purchased from Pel-Freez Biologicals. Human bicep and soleus muscle were purchased from BioIVT, and neonatal rat muscle was obtained in house. All myofibrils were prepared using published methods ([21]).
A lactate dehydrogenase/pyruvate kinase enzyme-coupled system ([62]) was used to monitor ATP hydrolysis rates in various muscle preparations. Rabbit psoas myofibrils were used for high-throughput screening at pCa 6.25 at 0.25 mg/mL. A multidrop cassette (Thermo Fisher Scientific) dispensed 10 μL of the coupled enzyme system, calcium, and myofibrils to 10 μL ATP, NADH and PEP to initiate the reaction prior to reading on a plate reader (Envision, Perkin Elmer) for 10 minutes per plate at room temperature. Hits were reconfirmed, and secondary assays were used to evaluate selectivity, including bovine cardiac myofibrils (pCa 5.86) and enzyme coupled hits with a hexokinase screen (Sigma-Aldrich).

mdx lumbrical muscle = assay: Ex vivo mdx lumbrical muscle contraction, calcium and clots; design: species or system mouse
Experimental: Intracellular calcium quantification and isometric injury were described previously ([31]). Lumbrical muscles were transferred to a custom-built chamber and mounted horizontally to a force transducer (model 400A, Aurora Scientific) at 25°C. Sarcomere length was adjusted to 2.5 μm by microscope. Contraction was elicited with 0.2-millisecond stimuli and injury via 1-second stimuli at 125 Hz.
For fluorescence experiments, a 75W xenon lamp was used with wavelengths selected using a diffraction grating monochromator (model DeltaRAM, Photon Technology International). Muscles were loaded with mag-fura-2 AM (10 μM in Tyrode) for 30 minutes at 25°C, excited at 344 and 375 nm (bandwidth 10 nm), and passed through a 510 nm emission filter (bandwidth 40 nm). Fluorescence responses were recorded alternately during 32 twitch contractions at 20-second intervals; background fluorescence was subtracted, and the response was averaged. High-affinity fura-2 was used to detect membrane breaches between tetanic contractions. Muscles were incubated with fura-2 AM (15 μM in Tyrode) for 30 minutes before 12 injurious contractions, separated by 1 minute with (10/s) alternating excitation wavelengths of 340 and 375 nm (bandwidth 1.25 nm) with a 510 nm emission filter (bandwidth 40 nm) and preloading background subtraction. Still and video images were captured using a digital camera (Nikon D750).

ULK2 = target: T16, ULK2 (Homo sapiens, UniProt Q8IYT8); assay: KINOMEscan scanEDGE; type: binding; conditions: 20 uM
T16 construct: purchased Eurofins DiscoverX (KINOMEscan; SAFETYscan E/IC50 ELECT)

p38-beta = target: T17, p38-beta (Homo sapiens, UniProt Q15759); assay: KINOMEscan scanEDGE; type: binding; conditions: 20 uM
T17 construct: purchased Eurofins DiscoverX (KINOMEscan; SAFETYscan E/IC50 ELECT)

YANK3 = target: T18, YANK3 (Homo sapiens, UniProt Q86UX6); assay: KINOMEscan scanEDGE; type: binding; conditions: 20 uM
T18 construct: purchased Eurofins DiscoverX (KINOMEscan; SAFETYscan E/IC50 ELECT)

In the case of `O=c1ccc(-c2cnc(OCC(F)(F)F)nc2)nn1Cc1cncc(F)c1` [EDG-5506], the “rate of Pi release from myosin with actin” value [1] is reported as “decreased the rate of Pi release”, the “binding, % of control” value [2] is reported as 90 % of control and the “binding, % of control” value (AURKA) is reported as 99 % of control. The “binding, % of control” value (JNK3) was 81 % of control, the “binding, % of control” value (MAP3K4) was 90 % of control and the “binding, % of control” value (CSF1R) was 100 % of control. It also gave an Emax (SERT) of 6.08%, an Emax (NET) of 4.79% and an Emax (DAT) of 0%. The “binding, % of control” value (SRPK3) was 95 % of control, the “binding, % of control” value (LKB1) was 86 % of control and the “binding, % of control” value (CHEK1) was 100 % of control. For the same compound, the “binding, % of control” value (SRC) was 100 % of control, the “binding, % of control” value [3] was 83 % of control and the “binding, % of control” value (FAK) was 100 % of control. For the same compound, the Emax (GR; read-out: Max Response (%) (Agonist)) was 0.41%, the Max inhibition (antagonist mode) (GR; read-out: Max Response (%) (Antagonist)) was 33.6% and the “Maximum Inhibition (%)” value (Human Soleus myofibrils; human soleus myofibrils) was 79%. The IC50 (Human Soleus myofibrils; human soleus, 66% Type I, 33% IIa, IIx, at pCa 50) was 1100 nM, the “reduction of specific tension before injury” value (mdx lumbrical muscle; 0.3 μM) was 15% and the “strength drop with contraction” value (mdx lumbrical muscle; mdx lumbrical) was “completely prevented”. The “clot formation (hypercontraction)” value (mdx lumbrical muscle; mdx lumbrical, after 12 contractions) was “completely prevented clot formation”, the “concentration of maximal efficacy” value (mdx lumbrical muscle; mdx lumbrical, repeated tetanic contraction) was 0.3 µM and the “binding, % of control” value (ULK2) was 82 % of control. For the same compound, the “binding, % of control” value (p38-beta) was 54 % of control and the “binding, % of control” value (YANK3) was 88 % of control.
